Results taken from ChEMBL document CHEMBL5537154, “Smart glypican-3-targeting peptide-chlorin e6 conjugates for targeted photodynamic therapy of hepatocellular carcinoma” (Eur J Med Chem, 2024).
The source made the active and inactive calls. No cut-off for these calls is given here. Peptide text beside a SMILES is read from it.

Experiments:
[1] = Drug distribution in tumor of BALB/C nude mouse model xenografted with human HepG2 cells at 1 to 2 uM/kg, iv measured for 1 to 6 hrs by fluorescence imaging analysis; assay type: ADME, organism-based, Neoplasm; settings: in vivo, dose lower 1 µM/Kg, time lower 1 hrs, dose upper 2 µM/Kg, time upper 6 hrs
[2] = test system: HeLa; experiment: Antiproliferative activity against human HeLa cells under dark condition by CCK8 assay; assay type: functional, cell-based
[3] = test system: HepG2; experiment: Induction of cell cycle arrest at S phase in human HepG2 cells at 1 uM under 10 J/cm2 light irradiation at 660 nm by flow cytometry relative to control; assay type: functional
[4] = Drug uptake in lysosome of human Huh-7 cells at 2 uM incubated for 24 hrs by lyso tracker green DND-26 probe based laser confocal microscopy; assay type: ADME, subcellular; settings: huh-7, 24 h
[5] = test system: MCF7; experiment: Antitumor activity against human MCF7 cells xenografted in BALB/C nude mouse model assessed as decrease in tumor growth at 1 to 2 uM/kg, iv administered every two days for 21 days along with 250 mW/cm2 light irradiation at 660 nm for 10 mins at 1 hr post-compound administration; assay type: functional, organism-based; settings: dose 1-2 µM/Kg, time 505.166 hrs
[6] = Drug distribution in tumor of BALB/C nude mouse model xenografted with human HepG2 cells at 1 to 2 uM/kg, iv measured for 1 to 4 hrs by fluorescence imaging analysis; assay type: ADME, organism-based, Neoplasm; settings: in vivo, dose lower 1 µM/Kg, time lower 1 hrs, dose upper 2 µM/Kg, time upper 4 hrs
[7] = Drug distribution in liver of BALB/C nude mouse model xenografted with human HepG2 cells at 1 to 2 uM/kg, iv measured for 1 to 4 hrs by fluorescence imaging analysis; assay type: ADME, organism-based; settings: in vivo, dose lower 1 µM/Kg, time lower 1 hrs, dose upper 2 µM/Kg, time upper 4 hrs

With `C=Cc1c(C)c2cc3nc(c(CC(=O)O)c4[nH]c(cc5nc(cc1[nH]2)C(C)=C5CC)c(C)c4C(=O)NCCCC(=O)N[C@@H](CC(=O)O)C(=O)N[C@@H](Cc1cnc[nH]1)C(=O)N[C@@H](CC(C)C)C(=O)N[C@@H](C)C(=O)N[C@@H](CO)C(=O)N[C@@H](CC(C)C)C(=O)N[C@@H](Cc1c[nH]c2ccccc12)C(=O)N[C@@H](Cc1c[nH]c2ccccc12)C(=O)NCC(=O)N[C@H](C(=O)N[C@@H](CCC(=O)O)C(=O)N[C@@H](CC(C)C)C(=O)O)[C@@H](C)O)[C@@H](CCC(=O)O)[C@@H]3C` (HELM PEPTIDE1{[C=Cc1c(C)c2cc3nc(c(CC(=O)O)c4[nH]c(cc5nc(cc1[nH]2)C(C)=C5CC)c(C)c4C(=O)[*:2])[C@@H](CCC(=O)O)[C@@H]3C].[O=C(CCCN[*:1])[*:2]].D.H.L.A.S.L.W.W.G.T.E.L}$$$$V2.0) the Drug uptake [1] was “Active”, the IC50 [2] was over 100 µM and the Activity [3] was 27.7%. The Drug uptake [4] was “Active”, the Activity [5] was “Active” and the Drug uptake [6] was “Active”. For the same compound, the Drug uptake [7] was “Not Active”.
